Here are results for 20 compounds from patent US20100093811A1 (priority 2007, published 2010).

For one assay, the target named is wild-type HIV-1 protease (Human immunodeficiency virus type 1 group M subtype B, UniProt P04585). Nature of the assay: Assay for inhibition of microbial expressed HIV protease. Type of assay: biochemical. The method, boiled down:
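Inhibition taken from HPLC (C18) product peak areas after phosphoric acid quench. Reaction: 440 micromolar Val-Ser-Gln-Asn-(betanapthyl)Ala-Pro-Ile-Val peptide, 5 pM E. coli-made protease, 1 h at 30° C, following 30 min room-temperature inhibitor preincubation in pH 5.5 acetate/NaCl/BSA buffer.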

For assay [1], the system named is acute HIV infection of T-lymphoid cells. Nature of the assay: Assay for inhibition of HIV replication (spread assay). It is filed as cell-based, HIV-1. The note with it: Human immunodeficiency virus 1, T-lymphoid; read-out: Spread - IC95. As to the method: • Assay for Inhibition of HIV Replication
Assays for the inhibition of acute HIV infection of T-lymphoid cells were conducted in accordance with Vacca, J. P. et al., Proc. Natl. Acad. Sci. USA 1994, 91: 4096.

[2] abbreviates: wild-type HIV-1 protease expressed in E. coli, peptide substrate, pH 5.5, read-out: Enzyme Inhibition - IC50.

pIC50: −log10 of the molar value. Where a name gives a salt, the structure may show the parent alone. Read-outs that look alike come from different tables or passages of the source.

The term pIC50 denotes −log10 of the IC50, conventionally taken in molar units. As a reminder, the IC95 is the concentration needed for an effect of 95%.

As to `CCN([C@H](CO)CCC[C@@H](NC(=O)[C@@H](NC(=O)OC)C(c1ccccc1)c1ccccc1)C1CC1)S(=O)(=O)c1ccc(N)cc1` [Example I10, N-{(1R,5S)-5-[[(4-aminophenyl)sulfonyl](ethyl)amino]-1-cyclopropyl-6-hydroxyhexyl}-Nα-(methoxycarbonyl)-β-phenyl-L-phenylalaninamide], at wild-type HIV-1 protease (setting [2]), the negative-log IC50 (pIC50) is 9.13. Further, the IC95 in assay [1] was 105 nM.

Consider `CC[C@@H](CCC[C@@H](CO)N(CCC(C)C)S(=O)(=O)c1ccc(CO)cc1)NC(=O)[C@@H](NC(=O)OC)C(c1ccccc1)c1ccccc1` [Example J1, N-{(1S,5S)-1-ethyl-6-hydroxy-5-[{[4-(hydroxymethyl)phenyl]sulfonyl}(3-methylbutyl)amino]hexyl}-Nα-(methoxycarbonyl)-β-phenyl-L-phenylalaninamide], for which, on wild-type HIV-1 protease (setting [2]), the negative-log IC50 (pIC50) is 10.82. Moreover, in assay [1], the IC95 was 9 nM.

For `COC(=O)N[C@H](C(=O)N[C@H](CCC[C@@H](CO)N(CCC(C)C)S(=O)(=O)c1ccc(CO)cc1)C(F)(F)F)C(c1ccccc1)c1ccccc1` [Example J2, N-[(1R,55S)-6-hydroxy-5-[{[4-(hydroxymethyl)phenyl]sulfonyl}(3-methylbutyl)amino]-1-(trifluoromethyl)hexyl]-Nα-(methoxycarbonyl)-β-phenyl-L-phenylalaninamide], the pIC50 on wild-type HIV-1 protease (setting [2]) was 10.92. Besides, in assay [1], the 95% effect concentration (IC95) turned out to be 8 nM.

For `COC(=O)N[C@H](C(=O)N[C@H](CCC[C@@H](CO)N(CCC(C)C)S(=O)(=O)c1ccc([C@H](C)O)cc1)C1CC1)C(c1ccc(F)cc1)c1ccc(F)cc1` [Example J3, N-{(1R,5S)-1-cyclopropyl-6-hydroxy-5-[({4-[(1S)-1-hydroxyethyl]phenyl}sulfonyl)(3-methylbutyl)amino]hexyl}-4-fluoro-β-(4-fluorophenyl)-Nα-(methoxycarbonyl)-L-phenylalaninamide], the pIC50 at wild-type HIV-1 protease (setting [2]) is 10.96. The IC95 in assay [1] turned out to be 25 nM.

As for `COC(=O)N[C@H](C(=O)N[C@@H](C)CCC[C@@H](CO)N(CCC(C)C)S(=O)(=O)c1ccc(CO)cc1)C(c1ccccc1)c1ccccc1` [Example J4, N-{(1S,5S)-6-hydroxy-5-[{[4-(hydroxymethyl)phenyl]sulfonyl}(3-methylbutyl)amino]-1-methylhexyl}-Nα-(methoxycarbonyl)-β-phenyl-L-phenylalaninamide], the pIC50 at wild-type HIV-1 protease (setting [2]) was 11.15. For the same compound, the IC95 in assay [1] is 6 nM.

For the compound `COC(=O)N[C@H](C(=O)N[C@H](C)CCC[C@@H](CO)N(CCC(C)C)S(=O)(=O)c1ccc(CO)cc1)C(c1ccccc1)c1ccccc1` [Example J5, N-{(1R,5S)-6-hydroxy-5-[{[4-(hydroxymethyl)phenyl]sulfonyl}(3-methylbutyl)amino]-1-methylhexyl}-Nα-(methoxycarbonyl)-β-phenyl-L-phenylalaninamide], the pIC50 at wild-type HIV-1 protease (setting [2]) is 9.54. Further, in assay [1], the 95% effect concentration (IC95) was found to be 192 nM.

As to `COC(=O)N[C@H](C(=O)N[C@H](CCC[C@@H](CO)N(CCC(C)C)S(=O)(=O)c1ccc(CO)cc1)C(C)(C)C)C(c1ccccc1)c1ccccc1` [Example J6, N-{(1R,5S)-1-tert-butyl-6-hydroxy-5-[{[4-(hydroxymethyl)phenyl]sulfonyl}(3-methylbutyl)amino]hexyl}-Nα-(methoxycarbonyl)-β-pbenyl-L-phenylalaninamide], the negative-log IC50 (pIC50) on wild-type HIV-1 protease (setting [2]) is 9.01. The concentration for an effect of 95% (IC95) in assay [1] was 327 nM.

On to `COC(=O)N[C@H](C(=O)N[C@@H](CCC[C@@H](CO)N(CCC(C)C)S(=O)(=O)c1ccc(CO)cc1)C(F)(F)F)C(c1ccccc1)c1ccccc1` [Example J7, N-[(1S,5S)-6-hydroxy-5-[{[4-(hydroxymethyl)phenyl]sulfonyl}(3-methylbutyl)amino]-1-(trifluoromethyl)hexyl]-Nα-(methoxycarbonyl)-β-phenyl-L-phenylalaninamide], for which the pIC50 at wild-type HIV-1 protease (setting [2]) was 9.21. In assay [1], the IC95 was 359 nM.

Regarding `COC(=O)N[C@H](C(=O)N[C@H](CCC[C@@H](CO)N(CCC(C)C)S(=O)(=O)c1ccc(CO)cc1)C1CC1)C(c1ccccc1)c1ccccc1` [Example J8, N-{(1R,5S)-1-cyclopropyl-6-hydroxy-5-[{[4-(hydroxymethyl)phenyl]sulfonyl}(3-methylbutyl)amino]hexyl}-Nα-(methoxycarbonyl)-β-phenyl-L-phenylalaninamide], the negative logarithm of the IC50 (pIC50) at wild-type HIV-1 protease (setting [2]) is 10.82. Besides, in assay [1], the IC95 was 10 nM.

Turning to `COC(=O)N[C@H](C(=O)N[C@H](CCC[C@@H](CO)N(CCC(C)C)S(=O)(=O)c1ccc(CO)cc1)C(C)C)C(c1ccccc1)c1ccccc1` [Example J9, N-{(1R,5S)-6-hydroxy-5-[{[4-(hydroxymethyl)phenyl]sulfonyl}(3-methylbutyl)amino]-1-isopropylhexyl}-Nα-(methoxycarbonyl)-β-phenyl-L-phenylalaninamide], the pIC50 on wild-type HIV-1 protease (setting [2]) is 10.16. Further, in assay [1], the 95% effect concentration (IC95) was found to be 23 nM.

Turning to `C=C[C@@H](CCC[C@@H](CO)N(CCC(C)C)S(=O)(=O)c1ccc(CO)cc1)NC(=O)[C@@H](NC(=O)OC)C(c1ccccc1)c1ccccc1` [Example J10, N-{(1R,5S)-6-hydroxy-5-[{[4-(hydroxymethyl)phenyl]sulfonyl}(3-methylbutyl)amino]-1-vinylhexyl}-Nα-(methoxycarbonyl)-β-phenyl-L-phenylalaninamide], the pIC50 at wild-type HIV-1 protease (setting [2]) was 11.30. For the same compound, the concentration for an effect of 95% (IC95) in assay [1] came to 4 nM.

For the compound `C=C[C@H](CCC[C@@H](CO)N(CCC(C)C)S(=O)(=O)c1ccc(CO)cc1)NC(=O)[C@@H](NC(=O)OC)C(c1ccccc1)c1ccccc1` [Example J11, N-{(1S,5S)-6-hydroxy-5-[{[4-(hydroxymethyl)phenyl]sulfonyl}(3-metbylbutyl)amino]-1-vinylhexyl}-Nα-(methoxycarbonyl)-β-phenyl-L-phenylalaninamide], the pIC50 on wild-type HIV-1 protease (setting [2]) is 9.73. In assay [1], the IC95 is 107 nM.

`COC(=O)N[C@H](C(=O)N[C@H](CCC[C@@H](CO)N(CCC(C)C)S(=O)(=O)c1ccc(CO)cc1)C(F)(F)C(F)(F)F)C(c1ccccc1)c1ccccc1` [Example J12, N-[(1R,5S)-6-hydroxy-5-[{[4-(hydroxymethyl)phenyl]sulfonyl}(3-methylbutyl)amino]-1-(pentafluoroethyl)hexyl]-Nα-(methoxycarbonyl)-β-phenyl-L-phenylalaninamide]: the negative-log IC50 (pIC50) at wild-type HIV-1 protease (setting [2]) is 10.44. In addition, the concentration for an effect of 95% (IC95) in assay [1] came to 43 nM.

In the case of `C#C[C@@H](CCC[C@@H](CO)N(CCC(C)C)S(=O)(=O)c1ccc(CO)cc1)NC(=O)[C@@H](NC(=O)OC)C(c1ccccc1)c1ccccc1` [Example J13, N-{(1R,5S)-1-ethynyl-6-hydroxy-5-[{[4-(hydroxymethyl)phenyl]sulfonyl}(3-methylbutyl)amino]hexyl}-Nα-(methoxycarbonyl)-β-phenyl-L-phenylalaninamide], the pIC50 on wild-type HIV-1 protease (setting [2]) was 11.00. In addition, the IC95 in assay [1] turned out to be 6 nM.

Consider `COC(=O)N[C@@H](Cc1ccccc1Cl)C(=O)N[C@H](CCC[C@@H](CO)N(CCC(C)C)S(=O)(=O)c1ccc(CO)cc1)C1CC1` [Example J14, 2-chloro-N-{(1R,5S)-1-cyclopropyl-6-hydroxy-5-[{[4-(hydroxymethyl)phenyl]sulfonyl}(3-methylbutyl)amino]hexyl}-Nα-(methoxycarbonyl)-L-phenylalaninamide], for which the pIC50 at wild-type HIV-1 protease (setting [2]) was 9.74. Moreover, the concentration for an effect of 95% (IC95) in assay [1] worked out at 63 nM.

Regarding `COC(=O)N[C@@H](Cc1ccccc1Cl)C(=O)N[C@H](CCC[C@@H](CO)N(CCC(C)C)S(=O)(=O)c1ccc([C@H](C)O)cc1)C1CC1` [Example J15, 2-chloro-N-{(1R,5S)-1-cyclopropyl-6-hydroxy-5-[({4-[(1S)-1-hydroxyethyl]phenyl}sulfonyl)(3-methylbutyl)amino]hexyl}-Nα-(methoxycarbonyl)-L-pbenylalaninamide], the negative logarithm of the IC50 (pIC50) on wild-type HIV-1 protease (setting [2]) was 9.43. The IC95 in assay [1] is 42 nM.

In the case of `COC(=O)N[C@H](C(=O)N[C@H](CCC[C@@H](CO)N(CCC(C)C)S(=O)(=O)c1ccc(CO)cc1)C1CC1)C(c1ccc(F)cc1)c1ccc(F)cc1` [Example J16, N-{(1R,55)-1-cyclopropyl-6-hydroxy-5-[{[4-(hydroxymethyl)phenyl]sulfonyl}(3-methylbutyl)amino]hexyl}-4-fluoro-β-(4-fluorophenyl)-Nα-(methoxycarbonyl)-L-phenylalaninamide], the pIC50 at wild-type HIV-1 protease (setting [2]) was 11.00. In assay [1], the IC95 amounted to 25 nM.

`CC(C)CCN([C@H](CO)CCC[C@@H](NC(=O)[C@@H](N)C(c1ccc(F)cc1)c1ccc(F)cc1)C1CC1)S(=O)(=O)c1ccc(CO)cc1` [Example J17, N-{(1R,5S)-1-cyclopropyl-6-hydroxy-5-[{[4-(hydroxymethyl)phenyl]sulfonyl}(3-methylbutyl)amino]hexyl}-4-fluoro-β-(4-fluorophenyl)-L-phenylalaninamide hydrochloride] had a negative-log IC50 (pIC50) against wild-type HIV-1 protease of 11.00. Also, the 95% effect concentration (IC95) in assay [1] is 6 nM.

`CC(C)CCN([C@H](CO)CCC[C@@H](NC(=O)[C@@H](N)C(c1ccc(F)cc1)c1ccc(F)cc1)C1CC1)S(=O)(=O)c1ccc([C@H](C)O)cc1` [Example J18, N-{(1R,5S)-1-cyclopropyl-6-hydroxy-5-[({4-[(1S)-1-hydroxyethyl]phenyl}sulfonyl)(3-methylbutyl)amino]hexyl}-4-fluoro-β-(4-fluorophenyl)-L-phenylalaninamide hydrochloride] gave a negative logarithm of the IC50 (pIC50) against wild-type HIV-1 protease of 11.00. Further, the IC95 in assay [1] amounted to 8 nM.

With `CC[C@@H](CCC[C@@H](CO)N(CC(C)C)S(=O)(=O)c1ccc(CO)cc1)NC(=O)[C@@H](NC(=O)OC)C(c1ccccc1)c1ccccc1` [Example J19, N-{(1S,5S)-1-ethyl-6-hydroxy-5-[{[4-(hydroxymethyl)phenyl]sulfonyl}(isobutyl)amino]hexyl]-Nα-(methoxycarbonyl)-β-phenyl-L-phenylalaninamide], the pIC50 on wild-type HIV-1 protease (setting [2]) is 10.47. In assay [1], the IC95 worked out at 11 nM.
